Measured values published in PMC4303209, “A novel phosphatidylinositol 3-kinase (PI3K) inhibitor directs a potent FOXO-dependent, p53-independent cell cycle arrest phenotype characterized by the differential induction of a subset of FOXO-regulated genes” (Breast Cancer Research : BCR, 2014).

Tested on: MCF-7 breast cancer cells
Experiment: Microarray gene expression analysis (Agilent whole human genome 4 x 44K; compound vs DMSO, LIMMA log2 fold change)
Format: cell-based
Conditions: cell cycle genes

For `Cn1ncc2c(N3CCOCC3)nc(-c3cccc(O)c3)nc21` [ETP-45658], the “STAT5A log2FC” value (Gene 6776) was 0.569, the “STAT5B log2FC” value (Gene 6777) was 0.093 and the “AURKA log2FC” value (Gene 6790) was 0.163. For the same compound, the “STK10 log2FC” value (Gene 6793) was -0.333, the “AURKC log2FC” value (Gene 6795) was 0.077 and the “SUV39H1 log2FC” value (Gene 6839) was -0.686. For the same compound, the “TACC1 log2FC” value (Gene 6867) was 0.112, the “ADAM17 log2FC” value (Gene 6868) was 0.578 and the “TAF1 log2FC” value (Gene 6872) was 0.237. For the same compound, the “TAL1 log2FC” value (Gene 6886) was -0.533, the “TBX3 log2FC” value (Gene 6926) was -0.702 and the “TCF3 log2FC” value (Gene 6929) was -0.071. For the same compound, the “DYNLT3 log2FC” value (Gene 6990) was -0.257, the “DYNLT1 log2FC” value (Gene 6993) was 0.039 and the “TERF1 log2FC” value (Gene 7013) was 0.607. For the same compound, the “TERF2 log2FC” value (Gene 7014) was -0.131, the “TFAP4 log2FC” value (Gene 7023) was 0.268 and the “NR2F2 log2FC” value (Gene 7026) was 0.124. The “TFDP1 log2FC” value (Gene 7027) was -0.484, the “TFDP2 log2FC” value (Gene 7029) was 0.532 and the “TGFB1 log2FC” value (Gene 7040) was -0.640. The “THBS1 log2FC” value (Gene 7057) was -0.941, the “TNF log2FC” value (Gene 7124) was -1.647 and the “TNFAIP3 log2FC” value (Gene 7128) was -0.659. For the same compound, the “TOP2A log2FC” value (Gene 7153) was 0.987, the “TOP2B log2FC” value (Gene 7155) was 1.103 and the “TOP3A log2FC” value (Gene 7156) was -0.181. For the same compound, the “TP53 log2FC” value (Gene 7157) was -0.193, the “TP53BP2 log2FC” value (Gene 7159) was 0.300 and the “TPR log2FC” value (Gene 7175) was 0.896. The “TSC1 log2FC” value (Gene 7248) was 0.395, the “TSC2 log2FC” value (Gene 7249) was -0.413 and the “TSG101 log2FC” value (Gene 7251) was 0.390. The “TTK log2FC” value (Gene 7272) was 1.754, the “TUBG1 log2FC” value (Gene 7283) was -0.283 and the “UBA52 log2FC” value (Gene 7311) was 0.322. For the same compound, the “UBB log2FC” value (Gene 7314) was 0.069, the “UBC log2FC” value (Gene 7316) was 0.294 and the “UBE2B log2FC” value (Gene 7320) was 0.582. The “UBE2D1 log2FC” value (Gene 7321) was 0.498, the “UBE2E1 log2FC” value (Gene 7324) was 0.262 and the “UBE2I log2FC” value (Gene 7329) was -0.395. The “WEE1 log2FC” value (Gene 7465) was -0.074, the “WNT5A log2FC” value (Gene 7474) was 0.075 and the “WNT10B log2FC” value (Gene 7480) was -0.451. For the same compound, the “WNT9A log2FC” value (Gene 7483) was 0.073, the “XPC log2FC” value (Gene 7508) was 0.604 and the “XRCC2 log2FC” value (Gene 7516) was -0.596. For the same compound, the “YWHAG log2FC” value (Gene 7532) was -0.492, the “ZNF16 log2FC” value (Gene 7564) was 0.343 and the “ZBTB17 log2FC” value (Gene 7709) was 0.065. The “PTP4A1 log2FC” value (Gene 7803) was -0.345, the “EVI5 log2FC” value (Gene 7813) was 0.609 and the “ALMS1 log2FC” value (Gene 7840) was 0.617. For the same compound, the “NR4A3 log2FC” value (Gene 8013) was 0.735, the “NUP214 log2FC” value (Gene 8021) was -0.742 and the “FOSL1 log2FC” value (Gene 8061) was -2.502. For the same compound, the “CUL5 log2FC” value (Gene 8065) was -0.432, the “YEATS4 log2FC” value (Gene 8089) was 1.304 and the “HMGA2 log2FC” value (Gene 8091) was -1.656. For the same compound, the “CHAF1B log2FC” value (Gene 8208) was 0.083, the “CLTCL1 log2FC” value (Gene 8218) was -0.209 and the “USP9X log2FC” value (Gene 8239) was 0.632. The “SMC1A log2FC” value (Gene 8243) was 0.142, the “CDC7 log2FC” value (Gene 8317) was 0.500 and the “RAD54L log2FC” value (Gene 8438) was -0.289. The “CUL4B log2FC” value (Gene 8450) was 0.695, the “CUL4A log2FC” value (Gene 8451) was 0.552 and the “CUL1 log2FC” value (Gene 8454) was 0.479. For the same compound, the “KLF11 log2FC” value (Gene 8462) was 1.337, the “OFD1 log2FC” value (Gene 8481) was 1.019 and the “PKP4 log2FC” value (Gene 8502) was 0.170. For the same compound, the “GAS7 log2FC” value (Gene 8522) was -0.364, the “DGKZ log2FC” value (Gene 8525) was -0.549 and the “CAMK1 log2FC” value (Gene 8536) was -0.088. The “CDC14B log2FC” value (Gene 8555) was 0.259, the “CDK10 log2FC” value (Gene 8558) was 0.167 and the “MADD log2FC” value (Gene 8567) was 0.423. For the same compound, the “DYNLL1 log2FC” value (Gene 8655) was -0.944, the “TNKS log2FC” value (Gene 8658) was 0.686 and the “BECN1 log2FC” value (Gene 8678) was 0.486. The “CDC23 log2FC” value (Gene 8697) was 0.451, the “CRADD log2FC” value (Gene 8738) was -0.101 and the “CCNK log2FC” value (Gene 8812) was -0.603. The “BANF1 log2FC” value (Gene 8815) was -0.450, the “CDK5R1 log2FC” value (Gene 8851) was -0.154 and the “IER3 log2FC” value (Gene 8870) was -1.789. For the same compound, the “SPHK1 log2FC” value (Gene 8877) was -0.334, the “CDC16 log2FC” value (Gene 8881) was 0.890 and the “CCNA1 log2FC” value (Gene 8900) was 0.079. For the same compound, the “TIMELESS log2FC” value (Gene 8914) was 0.236, the “PHOX2B log2FC” value (Gene 8929) was -0.044 and the “MBD4 log2FC” value (Gene 8930) was 0.489. For the same compound, the “BTRC log2FC” value (Gene 8945) was 0.108, the “WASL log2FC” value (Gene 8976) was 0.239 and the “RNF8 log2FC” value (Gene 9025) was -0.050. The “PRC1 log2FC” value (Gene 9055) was 0.420, the “USP2 log2FC” value (Gene 9099) was -0.057 and the “USP8 log2FC” value (Gene 9101) was 0.690. For the same compound, the “SMC3 log2FC” value (Gene 9126) was 1.332, the “EXO1 log2FC” value (Gene 9156) was 0.057 and the “ARHGEF2 log2FC” value (Gene 9181) was -0.734. The “ZW10 log2FC” value (Gene 9183) was 0.473, the “BUB3 log2FC” value (Gene 9184) was 0.588 and the “NOLC1 log2FC” value (Gene 9221) was -0.505. For the same compound, the “CCPG1 log2FC” value (Gene 9236) was 0.930, the “MAPKAPK2 log2FC” value (Gene 9261) was -0.374 and the “PIWIL1 log2FC” value (Gene 9271) was 0.057. For the same compound, the “RECQL5 log2FC” value (Gene 9400) was 0.154, the “ROCK2 log2FC” value (Gene 9475) was 0.291 and the “PSMF1 log2FC” value (Gene 9491) was -0.383. The “VPS4B log2FC” value (Gene 9525) was 0.614, the “CLOCK log2FC” value (Gene 9575) was 0.069 and the “MAD2L1BP log2FC” value (Gene 9587) was -0.350. The “ARHGEF10 log2FC” value (Gene 9639) was 0.265, the “MDC1 log2FC” value (Gene 9656) was -0.639 and the “CEP135 log2FC” value (Gene 9662) was 0.532. The “KIAA0430 log2FC” value (Gene 9665) was 0.757, the “CROCC log2FC” value (Gene 9696) was -0.051 and the “ESPL1 log2FC” value (Gene 9700) was 0.453. For the same compound, the “CEP57 log2FC” value (Gene 9702) was 1.199, the “UTP14C log2FC” value (Gene 9724) was 0.374 and the “KNTC1 log2FC” value (Gene 9735) was 0.636. The “RASSF2 log2FC” value (Gene 9770) was 0.675, the “CKAP5 log2FC” value (Gene 9793) was 0.439 and the “SFI1 log2FC” value (Gene 9814) was -0.103. The “RB1CC1 log2FC” value (Gene 9821) was 1.457, the “MELK log2FC” value (Gene 9833) was 0.433 and the “GINS1 log2FC” value (Gene 9837) was -0.673. The “MAGI2 log2FC” value (Gene 9863) was 0.425, the “TLK1 log2FC” value (Gene 9874) was 0.392 and the “POM121 log2FC” value (Gene 9883) was -0.667. The “KLHL21 log2FC” value (Gene 9903) was 0.769, the “DCLRE1A log2FC” value (Gene 9937) was 0.710 and the “USP3 log2FC” value (Gene 9960) was 0.530. For the same compound, the “THOC1 log2FC” value (Gene 9984) was 0.606, the “DMTF1 log2FC” value (Gene 9988) was 0.604 and the “CASP8AP2 log2FC” value (Gene 9994) was 0.813. The “PDCD6IP log2FC” value (Gene 10015) was 0.516, the “BCL2L11 log2FC” value (Gene 10018) was 0.145 and the “CHAF1A log2FC” value (Gene 10036) was -0.375. The “PARP3 log2FC” value (Gene 10039) was 0.325, the “TOM1L1 log2FC” value (Gene 10040) was 0.759 and the “SMC4 log2FC” value (Gene 10051) was 0.902. The “ACTR2 log2FC” value (Gene 10097) was -0.298, the “RAD50 log2FC” value (Gene 10111) was 0.524 and the “KIF20A log2FC” value (Gene 10112) was 0.476. The “OPTN log2FC” value (Gene 10133) was 0.838, the “AKAP9 log2FC” value (Gene 10142) was 1.382 and the “PSME3 log2FC” value (Gene 10197) was -1.314. For the same compound, the “MPHOSPH9 log2FC” value (Gene 10198) was 0.470, the “MPHOSPH6 log2FC” value (Gene 10200) was -0.666 and the “MAEA log2FC” value (Gene 10296) was -0.219. For the same compound, the “PAK4 log2FC” value (Gene 10298) was -0.601, the “NPM2 log2FC” value (Gene 10361) was -0.152 and the “HMG20B log2FC” value (Gene 10362) was 0.276. The “CITED2 log2FC” value (Gene 10370) was 2.261.
